Data set [1] deals with GAL4 DNA-binding domain fusion. To be noted: cited from earlier work.
Data set [2] relates to transcription template with 5 copies of ATF binding sites upstream of minimal HSV thymidine kinase promoter driving CAT reporter gene, BHK-21 cells. The experiment in a line: Transient cotransfection CAT reporter assay in BHK-21 cells, template with ATF binding sites. It is filed as cell-based. Conditions: 50 nM ATFs, 1 microgram plasmid, LipofectAMINE, harvested 48 hours after transfection. The text has this: The ability of ATFs to activate transcription in vivo was examined by transient cotransfection assays in BHK-21 tissue culture cells. As a control template, a reporter construct containing the minimal HSV thymidine kinase promoter driving the expression of chloramphenicol acetyl transferase (CAT) reporter gene was used. The transcription template was constructed by incorporating the oligonucleotide with 5 copies of ATF binding sites in between the HindIII and BamHI restriction sites of the polylinker upstream of the control template promoter (FIG. 6A). The transfection mixture contained 1 microgram of the plasmid DNA and 50 nM ATFs. Transfections were performed by using polycationic lipid LipofectAMINE (Life Technologies). Cells were harvested 48 hours after transfection and CAT assays were performed using FAST CAT (Molecular Probes, Inc.) as substrate, and visualized and quantitated on a Fluorimager (Molecular Dynamics). Each reporter construct shown in FIG. 6A was transfected into cells with and without ATF molecules and the activation signal was measured with standard methods.
(In general: Reporter assays use an easily measured gene product as a stand-in for the process of interest.)

In data set [3] the test system is control template containing five GAL4 binding sites. The experiment in a line: In vitro run-off transcription assay with HeLa crude nuclear extract, control template. Format: biochemical. Conditions: data not shown. The text has this: (§1) Two 26-base oligonucleotides having the sequence of SEQ. ID NO: 9 and SEQ. ID NO: 10 were annealed and ligated to yield a series of double-stranded DNA fragments containing multiple binding sites for triple-helix formation. A fragment containing 5 copies of the site as shown in the duplex of SEQ ID NO: 9 and SEQ ID NO: 10 was purified by agarose gel electrophoresis and inserted into the HindIII restriction site in the polylinker of an embodiment of the G5E4T series of transcription templates.
(§2) In FIG. 3A, the control template contains […] five GAL4 and five ATF binding sites incorporated in the promoter at −53 and −155 bp relative to the +1 transcription start site, respectively; and in FIG. 3B the ATF assay template contains five ATF binding sites incorporated at −65 bp.
The resulting plasmids were linearized by digestion with EcoRI, purified and the linear templates were stored in ultra-pure water at −20° C. […]
(§3) The templates for in vitro transcription were made by inserting 5 direct repeats of a triple helix binding DNA sequence having a sequence of SEQ ID NO: 11 (5′[…]3′) into the Hind III restriction site in the polylinker of the GnE4T series of transcription templates (Lin, Y. S. et al., Cell 5A: 659-664 (1988)). […] The quantitation of signals was performed with Fuji MacBAS software.

Data set [4] concerns ATF assay template containing five ATF binding sites in the promoter. The experiment in a line: In vitro run-off transcription assay with HeLa crude nuclear extract, ATF assay template. It is filed as biochemical. Conditions: for level/strength of transcriptional activation in words (compared with GAL4-VP16 or basal): ATF assay template.
Source text: as §1, §2
The resulting plasmids were linearized by digestion with EcoRI, purified and the linear templates were stored in ultra-pure water at −20° C. The transcription assay was initiated by incubation of 200 ng of linearized transcription templates with ATFs in the binding buffer containing 10 mM Tris pH 8, 40 mM MgCl2 and 100 mM KCl at room temperature for 24 hours. The total volume of binding reaction was 5 microliters. After binding reaction, salt and buffer conditions were adjusted by the addition of 5 microliters of water, 6 microliters of 1×HeLa buffer (20 mM HEPES pH 7.9, 100 mM KCl, 0.2 mM EDTA, 0.5 mM DTT, 20% glycerol) and 5 microliters of HeLa crude nuclear extract (Promega, Madison Wis.). An aliquot of GAL4-VP16 protein (1 microliter total) was added to the control templates and all reactions were pre-incubated for 10 minutes at 30 degrees C. The transcription was initiated by the addition of 1 microliter of a mixture of ribonucleotide triphosphates (ATP, CTP, GTP, 10 mM each) and 0.5 microliters of ^32P-alpha-UTP (NEN, Boston, Mass.). After further incubation at 30° C. for 30 minutes all transcription reactions were terminated by the addition of 100 microliters of stop buffer (0.5 M sodium acetate, 0.2% SDS, 10 mM EDTA, 1 microgram/ml glycogen, 1 microgram/ml Proteinase K). The reactions were vortexed, incubated at 37° C. for 10 minutes, extracted with phenol/chloroform, and precipitated with 250 microliters of ice-cold ethanol. The pellets were dissolved in 20 microliters of standard denaturing formamide/dye mix and were loaded and run on a denaturing 6% polyacrylamide gel.
as §3

With “CGSDALDDFDLDML (synthetic composition useful as artificial transcriptional factor) [14-mer peptide derived from VP16]”, the “activity when fused to the GAL4 DNA binding domain through recombinant DNA techniques” value in data set [1] (Seipel et al.) is “inactive”.

For “ATF(29): 22-mer TFO (SEQ ID NO:5), 5′ polyglycol linker, crosslinker-coupled 29 amino acid VP16 peptide (SEQ ID NO:8) (chain 1 ttgtggtgggtggggtgtgggt; chain 2 CGSDALDDFDLDMLGSDALDDFDLDMLGS; polyglycol linker, crosslinker conjugation; synthetic composition useful as artificial transcriptional factor)”, in data set [2], the “transcriptional activation above the basal level” value stood at 5 fold. Also, in data set [3], the “activation of transcription from control templates or other templates lacking ATF binding sites” value is recorded as “does not activate transcription”. Besides, the “level/strength of transcriptional activation in words (compared with GAL4-VP16 or basal)” value in data set [4] (FIG. 4 and FIG. 5) was “comparable to the level that could be obtained with GAL4-VP16”; in data set [4] (FIG. 4 and FIG. 5, listed as ATF), “equal to, if not higher than”. Besides, the “ATF concentrations at which these levels of activation (30-40 fold) are obtained” value in data set [4] (further increase in concentration leads to diminishing activation) was 2 to 40 nM. In addition, the “activation of transcription above basal level” value in data set [4] (linearized template with five ATF binding sites, quantitation of 250 base RNA transcript) is 30-40 fold.

Consider “CGSDALDDFDLDMLGSDALDDFDLDMLGS (synthetic composition useful as artificial transcriptional factor) [SEQ ID NO: 8]”, for which the “activity retained relative to full-length VP 16 when fused to the GAL4 DNA-binding domain” value in data set [1] (Seipel et al. 1992, Nyanguile et al. 1997) is “about 70%”.

The values above are taken from patent US20030105045A1, “Artificial transcriptional factors and methods of use” (priority 2000, published 2003).
